Data: ChEMBL document CHEMBL1201862, “PubChem BioAssay data set” (2004)
Active and inactive are the calls of the source.

Columns and labels:
[1] = target: Neuropeptide Y receptor type 1 (Homo sapiens, UniProt P25929); format: functional;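 further: HEK293 cells with a CNG channel challenged with NPY then isoproterenol; potency as antagonist that reverses NPY suppression of cAMP signal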
[2] = target: Neuropeptide Y receptor type 2 (Homo sapiens, UniProt P49146); format: functional, cell-based;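 further: HEK293 cells expressing the receptor and a CNG channel; stimulus was NPY near EC95 followed by isoproterenol to raise cAMP; antagonist potency measured as restoring cAMP signal that NPY suppresses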
[3] = cytotoxicity toward NIH3T3 fibroblasts, dose response, counter-screen, cell-based, ATP luminescence, mouse fibroblasts (AID 2010); format: functional;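 further: cells exposed to compound for about 90 hours before reading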
[4] = target: Ion channel NompC (Danio rerio, UniProt Q7T1G6); assay: Fluorescence counterscreen assay for TRPML3 agonists: dose response cell-based high-throughput screening assay to identify agonists of the transient receptor potential channel N1 (TRPN1). [Related pubchem assays: 1526, 1424, 1448 ]; format: functional
[5] = target: Mucolipin-3 (Homo sapiens, UniProt Q8TDD5); assay: Dose response cell-based high-throughput screening assay for agonists of the transient receptor potential channel ML3 (TRPML3). [Related pubchem assays: 1526, 1424, 1448 ]; format: functional
[6] = inhibitors of intracellular T. cruzi replication, confirmation, NIH3T3 host cells, beta-gal luminescence (AID 2044); format: functional, cell-based;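 further: intracellular parasites grown in NIH/3T3 mouse fibroblasts as host cells; luminescent beta-galactosidase reporter signal from transgenic T. cruzi replicating inside host cells; inhibitors lower the luminescence signal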
[7] = target: Lytic switch protein BZLF1 (Epstein-Barr virus (strain B95-8) (HHV-4) (Human herpesvirus 4), UniProt P03206); assay: EBV ZTA inhibitors, dose response, counter-screen for EBNA-1 inhibitor project, biochemical, fluorescence polarization, Epstein-Barr virus, 1536-well (AID 2377); set-up: species or system human gammaherpesvirus 4;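 further: fluorescence polarization of Cy5-labelled ZRE DNA probe bound by purified Zta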
[8] = target: Epstein-Barr nuclear antigen 1 (Epstein-Barr virus (strain B95-8) (HHV-4) (Human herpesvirus 4), UniProt P03211); assay: EBNA-1 inhibitors, dose response, biochemical, fluorescence polarization, 1536-well (AID 2381); set-up: species or system human gammaherpesvirus 4;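 further: fluorescence polarization of a Cy5 DNA probe bound by EBNA-1 protein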
[9] = target: T1, Replicative DNA helicase DnaB (Mycobacterium tuberculosis, UniProt P9WMR3); assay: DnaB intein splicing inhibitors, dose response, biochemical, cell-free fluorescence (AID 449749); format: functional
T1 sequence (P9WMR3 whole entry): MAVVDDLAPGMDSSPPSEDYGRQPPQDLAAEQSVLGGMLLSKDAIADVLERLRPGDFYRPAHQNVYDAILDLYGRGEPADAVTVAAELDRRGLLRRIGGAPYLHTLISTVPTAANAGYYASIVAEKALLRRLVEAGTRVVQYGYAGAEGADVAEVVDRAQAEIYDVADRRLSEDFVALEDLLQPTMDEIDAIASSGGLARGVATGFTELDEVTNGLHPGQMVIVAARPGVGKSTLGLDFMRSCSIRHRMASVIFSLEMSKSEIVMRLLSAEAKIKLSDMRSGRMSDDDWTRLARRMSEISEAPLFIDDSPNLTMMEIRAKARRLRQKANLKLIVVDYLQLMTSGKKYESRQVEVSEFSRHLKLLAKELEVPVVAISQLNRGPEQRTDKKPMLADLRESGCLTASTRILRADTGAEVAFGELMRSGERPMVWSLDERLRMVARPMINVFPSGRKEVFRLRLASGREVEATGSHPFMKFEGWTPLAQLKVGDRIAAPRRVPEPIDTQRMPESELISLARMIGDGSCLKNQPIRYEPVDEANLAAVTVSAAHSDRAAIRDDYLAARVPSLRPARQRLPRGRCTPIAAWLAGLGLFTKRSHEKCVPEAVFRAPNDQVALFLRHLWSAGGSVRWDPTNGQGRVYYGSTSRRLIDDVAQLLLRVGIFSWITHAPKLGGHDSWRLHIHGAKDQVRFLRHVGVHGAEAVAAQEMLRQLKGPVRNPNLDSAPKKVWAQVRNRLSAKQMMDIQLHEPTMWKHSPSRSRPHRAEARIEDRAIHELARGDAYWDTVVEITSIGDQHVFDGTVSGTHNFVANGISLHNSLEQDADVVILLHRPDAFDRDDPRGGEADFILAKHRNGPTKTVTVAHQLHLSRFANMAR

[10] = target: T2, Sentrin-specific protease 8 (Homo sapiens, UniProt Q96LD8); format: functional
T2 sequence (Q96LD8 whole entry): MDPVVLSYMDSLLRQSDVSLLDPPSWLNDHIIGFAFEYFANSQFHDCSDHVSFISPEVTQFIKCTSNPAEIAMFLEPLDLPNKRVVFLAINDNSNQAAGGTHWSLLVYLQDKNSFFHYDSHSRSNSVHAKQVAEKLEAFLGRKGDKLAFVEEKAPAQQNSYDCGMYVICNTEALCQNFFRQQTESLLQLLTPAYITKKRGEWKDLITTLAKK

[11] = target: T2, Sentrin-specific protease 8; format: functional; remark: listed apart in the source
[12] = target: T3, Protein RecA (Mycobacterium tuberculosis, UniProt P9WHJ3); assay: Fluorescence Cell-Free Homogeneous Dose Retest to Identify Inhibitors of RecA-Intein Splicing Activity. [Related pubchem assays (depositor defined):AID2097, AID2223, AID489010, AID492950]; format: functional
T3 sequence (P9WHJ3 whole entry): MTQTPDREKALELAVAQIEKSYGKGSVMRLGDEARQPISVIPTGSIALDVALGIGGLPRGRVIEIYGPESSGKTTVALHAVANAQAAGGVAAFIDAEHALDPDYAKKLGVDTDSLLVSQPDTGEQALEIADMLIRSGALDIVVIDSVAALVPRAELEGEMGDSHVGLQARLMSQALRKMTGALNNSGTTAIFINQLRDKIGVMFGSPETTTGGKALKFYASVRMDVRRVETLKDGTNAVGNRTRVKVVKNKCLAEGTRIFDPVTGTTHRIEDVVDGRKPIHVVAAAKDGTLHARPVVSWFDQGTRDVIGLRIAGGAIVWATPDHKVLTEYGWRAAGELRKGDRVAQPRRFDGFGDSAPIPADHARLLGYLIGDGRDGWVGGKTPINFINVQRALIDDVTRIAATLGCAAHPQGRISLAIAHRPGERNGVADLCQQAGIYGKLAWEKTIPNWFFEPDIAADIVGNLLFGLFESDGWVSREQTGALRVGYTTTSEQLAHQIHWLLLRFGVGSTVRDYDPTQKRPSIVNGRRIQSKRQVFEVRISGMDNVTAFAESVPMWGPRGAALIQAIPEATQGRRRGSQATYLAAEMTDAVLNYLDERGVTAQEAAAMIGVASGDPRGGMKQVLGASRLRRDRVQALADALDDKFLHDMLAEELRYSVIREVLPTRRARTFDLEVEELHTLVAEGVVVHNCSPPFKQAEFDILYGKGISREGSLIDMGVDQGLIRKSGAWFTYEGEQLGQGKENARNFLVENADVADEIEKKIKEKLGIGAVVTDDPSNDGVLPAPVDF

[13] = target: Protein-tyrosine kinase 2-beta (Homo sapiens, UniProt Q14289);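 further: potency of inhibitors of PYK2 kinase phosphorylation of poly-GT substrate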
[14] = target: T4, Apoptotic protease-activating factor 1 (Homo sapiens, UniProt O14727); format: functional
T4 sequence (O14727 whole entry): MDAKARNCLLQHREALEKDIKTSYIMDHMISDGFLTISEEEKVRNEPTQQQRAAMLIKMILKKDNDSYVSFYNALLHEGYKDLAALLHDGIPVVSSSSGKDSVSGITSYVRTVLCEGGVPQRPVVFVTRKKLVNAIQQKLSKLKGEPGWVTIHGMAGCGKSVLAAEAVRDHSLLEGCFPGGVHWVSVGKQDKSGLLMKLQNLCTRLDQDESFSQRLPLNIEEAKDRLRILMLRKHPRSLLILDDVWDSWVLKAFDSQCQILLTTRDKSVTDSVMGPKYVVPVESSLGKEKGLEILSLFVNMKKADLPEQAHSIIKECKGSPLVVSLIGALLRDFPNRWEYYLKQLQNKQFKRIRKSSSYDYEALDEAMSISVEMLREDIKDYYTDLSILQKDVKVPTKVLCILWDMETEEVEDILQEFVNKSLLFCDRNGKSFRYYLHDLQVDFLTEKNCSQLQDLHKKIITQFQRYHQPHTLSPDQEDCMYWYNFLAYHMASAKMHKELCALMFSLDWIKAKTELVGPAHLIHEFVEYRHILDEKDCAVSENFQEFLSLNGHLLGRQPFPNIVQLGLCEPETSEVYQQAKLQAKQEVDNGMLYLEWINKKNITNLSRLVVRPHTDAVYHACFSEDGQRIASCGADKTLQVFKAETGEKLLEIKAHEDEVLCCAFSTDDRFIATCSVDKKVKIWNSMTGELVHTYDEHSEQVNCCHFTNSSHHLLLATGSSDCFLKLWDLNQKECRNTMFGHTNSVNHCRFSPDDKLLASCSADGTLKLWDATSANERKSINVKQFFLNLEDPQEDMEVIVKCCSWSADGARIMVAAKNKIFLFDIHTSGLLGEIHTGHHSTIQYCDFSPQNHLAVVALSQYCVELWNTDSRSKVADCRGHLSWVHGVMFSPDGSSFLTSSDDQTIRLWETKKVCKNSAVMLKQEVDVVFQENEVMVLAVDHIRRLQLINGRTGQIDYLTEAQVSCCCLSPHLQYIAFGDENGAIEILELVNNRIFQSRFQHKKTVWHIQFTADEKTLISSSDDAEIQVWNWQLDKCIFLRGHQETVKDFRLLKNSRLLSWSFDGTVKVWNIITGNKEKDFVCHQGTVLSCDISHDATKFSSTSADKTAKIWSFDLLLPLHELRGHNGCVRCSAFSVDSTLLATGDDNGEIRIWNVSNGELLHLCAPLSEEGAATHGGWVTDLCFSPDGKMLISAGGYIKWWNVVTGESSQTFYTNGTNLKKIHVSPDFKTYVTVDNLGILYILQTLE

[15] = target: Bcl-2-like protein 10 (Homo sapiens, UniProt Q9HD36); assay: Biochemical TR3 FP assay of Bcl-B inhibitor potency, EC50 (AID 1243); format: functional
[16] = inhibitors of Bluetongue virus cytopathic effect, confirmation, arbovirus, BSR cells (AID 1250); format: functional;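 further: protection from viral cytopathic effect measured as cell viability by ATP luminescence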
[17] = system: Streptococcus; assay: Group A Streptococcus viability loss, dose response, counter-screen for streptokinase expression inhibitor project, luminescence, BacTiterGlo (AID 1915); format: functional, organism-based;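 further: potency for reduction of bacterial viability or growth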
[18] = HIV-1 Env-mediated cell fusion inhibitors, dose response, CCR5-tropic Env (AID 2279); format: functional
[19] = target: T5, Streptokinase A (Streptococcus pyogenes serotype M1, UniProt P10520); assay: S. pyogenes streptokinase expression inhibitors, potency, dose response, plasminogen activation absorbance, OD405 (AID 1914); format: functional, Streptococcus pyogenes M1 GAS;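 further: secreted streptokinase activity via plasminogen activation per viability signal from cell pellet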
T5 sequence (P10520 whole entry): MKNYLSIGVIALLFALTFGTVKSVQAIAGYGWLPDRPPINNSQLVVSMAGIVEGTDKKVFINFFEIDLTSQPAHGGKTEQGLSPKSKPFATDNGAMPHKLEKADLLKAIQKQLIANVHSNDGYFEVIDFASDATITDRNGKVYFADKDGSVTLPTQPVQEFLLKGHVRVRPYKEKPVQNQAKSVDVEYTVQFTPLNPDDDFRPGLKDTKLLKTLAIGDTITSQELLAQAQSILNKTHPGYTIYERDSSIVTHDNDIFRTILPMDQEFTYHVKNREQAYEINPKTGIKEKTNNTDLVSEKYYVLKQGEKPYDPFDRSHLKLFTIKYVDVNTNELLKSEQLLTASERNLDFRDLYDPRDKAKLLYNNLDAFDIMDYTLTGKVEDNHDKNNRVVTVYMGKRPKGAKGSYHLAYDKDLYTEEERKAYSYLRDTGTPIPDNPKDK

[20] = system: Streptococcus sp. 'group A'; assay: growth inhibition of control SK(-) GAS strain, dose response, counter-screen for streptokinase expression inhibitor project, luminescence, kanamycin, BacTiterGlo, confirmation (AID 1900); format: functional, organism-based
[21] = target: Induced myeloid leukemia cell differentiation protein Mcl-1 (Homo sapiens, UniProt Q07820); format: functional
[22] = target: Sphingosine 1-phosphate receptor 2 (Homo sapiens, UniProt O95136); assay: Dose Response Cell Based Assay for Agonists of the S1P2 Receptor of Purchased Analogues. [Related pubchem assays: 729, 843, 854, 736 ]; format: functional
[23] = target: T6, Fatty acid synthase (Homo sapiens, UniProt P49327); assay: FAS thioesterase domain inhibitors, dose response, biochemical, kinetic fluorescence intensity (AID 624326); format: functional;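 further: rate of fluorescence rise from hydrolysis of a fluorogenic O-methyl fluorescein ester substrate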
[24] = target: T6, Fatty acid synthase; assay: FAS thioesterase domain inhibitors, dose response, biochemical, endpoint fluorescence intensity, uHTS hits (AID 624327); format: functional;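 further: fluorescence from hydrolysis of an O-methyl fluorescein acyl ester substrate by the enzyme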
[25] = target: 5-hydroxytryptamine receptor 1E (Homo sapiens, UniProt P28566); assay: Counterscreen assay for S1P3 antagonists: Dose response cell-based high throughput screening assay to identify antagonists of the 5-Hydroxytryptamine Receptor Subtype 1E (5HT1E). [Related pubchem assays: 1429, 485 ]; format: functional
[26] = target: Sphingosine 1-phosphate receptor 3 (Homo sapiens, UniProt Q99500); assay: Dose response cell-based high throughput screening assay for antagonists of the Sphingosine 1-Phosphate Receptor 3 (S1P3). [Related pubchem assays: 1429, 485 ]; format: functional

T6 sequence (P49327 whole entry, the tested form may be a part): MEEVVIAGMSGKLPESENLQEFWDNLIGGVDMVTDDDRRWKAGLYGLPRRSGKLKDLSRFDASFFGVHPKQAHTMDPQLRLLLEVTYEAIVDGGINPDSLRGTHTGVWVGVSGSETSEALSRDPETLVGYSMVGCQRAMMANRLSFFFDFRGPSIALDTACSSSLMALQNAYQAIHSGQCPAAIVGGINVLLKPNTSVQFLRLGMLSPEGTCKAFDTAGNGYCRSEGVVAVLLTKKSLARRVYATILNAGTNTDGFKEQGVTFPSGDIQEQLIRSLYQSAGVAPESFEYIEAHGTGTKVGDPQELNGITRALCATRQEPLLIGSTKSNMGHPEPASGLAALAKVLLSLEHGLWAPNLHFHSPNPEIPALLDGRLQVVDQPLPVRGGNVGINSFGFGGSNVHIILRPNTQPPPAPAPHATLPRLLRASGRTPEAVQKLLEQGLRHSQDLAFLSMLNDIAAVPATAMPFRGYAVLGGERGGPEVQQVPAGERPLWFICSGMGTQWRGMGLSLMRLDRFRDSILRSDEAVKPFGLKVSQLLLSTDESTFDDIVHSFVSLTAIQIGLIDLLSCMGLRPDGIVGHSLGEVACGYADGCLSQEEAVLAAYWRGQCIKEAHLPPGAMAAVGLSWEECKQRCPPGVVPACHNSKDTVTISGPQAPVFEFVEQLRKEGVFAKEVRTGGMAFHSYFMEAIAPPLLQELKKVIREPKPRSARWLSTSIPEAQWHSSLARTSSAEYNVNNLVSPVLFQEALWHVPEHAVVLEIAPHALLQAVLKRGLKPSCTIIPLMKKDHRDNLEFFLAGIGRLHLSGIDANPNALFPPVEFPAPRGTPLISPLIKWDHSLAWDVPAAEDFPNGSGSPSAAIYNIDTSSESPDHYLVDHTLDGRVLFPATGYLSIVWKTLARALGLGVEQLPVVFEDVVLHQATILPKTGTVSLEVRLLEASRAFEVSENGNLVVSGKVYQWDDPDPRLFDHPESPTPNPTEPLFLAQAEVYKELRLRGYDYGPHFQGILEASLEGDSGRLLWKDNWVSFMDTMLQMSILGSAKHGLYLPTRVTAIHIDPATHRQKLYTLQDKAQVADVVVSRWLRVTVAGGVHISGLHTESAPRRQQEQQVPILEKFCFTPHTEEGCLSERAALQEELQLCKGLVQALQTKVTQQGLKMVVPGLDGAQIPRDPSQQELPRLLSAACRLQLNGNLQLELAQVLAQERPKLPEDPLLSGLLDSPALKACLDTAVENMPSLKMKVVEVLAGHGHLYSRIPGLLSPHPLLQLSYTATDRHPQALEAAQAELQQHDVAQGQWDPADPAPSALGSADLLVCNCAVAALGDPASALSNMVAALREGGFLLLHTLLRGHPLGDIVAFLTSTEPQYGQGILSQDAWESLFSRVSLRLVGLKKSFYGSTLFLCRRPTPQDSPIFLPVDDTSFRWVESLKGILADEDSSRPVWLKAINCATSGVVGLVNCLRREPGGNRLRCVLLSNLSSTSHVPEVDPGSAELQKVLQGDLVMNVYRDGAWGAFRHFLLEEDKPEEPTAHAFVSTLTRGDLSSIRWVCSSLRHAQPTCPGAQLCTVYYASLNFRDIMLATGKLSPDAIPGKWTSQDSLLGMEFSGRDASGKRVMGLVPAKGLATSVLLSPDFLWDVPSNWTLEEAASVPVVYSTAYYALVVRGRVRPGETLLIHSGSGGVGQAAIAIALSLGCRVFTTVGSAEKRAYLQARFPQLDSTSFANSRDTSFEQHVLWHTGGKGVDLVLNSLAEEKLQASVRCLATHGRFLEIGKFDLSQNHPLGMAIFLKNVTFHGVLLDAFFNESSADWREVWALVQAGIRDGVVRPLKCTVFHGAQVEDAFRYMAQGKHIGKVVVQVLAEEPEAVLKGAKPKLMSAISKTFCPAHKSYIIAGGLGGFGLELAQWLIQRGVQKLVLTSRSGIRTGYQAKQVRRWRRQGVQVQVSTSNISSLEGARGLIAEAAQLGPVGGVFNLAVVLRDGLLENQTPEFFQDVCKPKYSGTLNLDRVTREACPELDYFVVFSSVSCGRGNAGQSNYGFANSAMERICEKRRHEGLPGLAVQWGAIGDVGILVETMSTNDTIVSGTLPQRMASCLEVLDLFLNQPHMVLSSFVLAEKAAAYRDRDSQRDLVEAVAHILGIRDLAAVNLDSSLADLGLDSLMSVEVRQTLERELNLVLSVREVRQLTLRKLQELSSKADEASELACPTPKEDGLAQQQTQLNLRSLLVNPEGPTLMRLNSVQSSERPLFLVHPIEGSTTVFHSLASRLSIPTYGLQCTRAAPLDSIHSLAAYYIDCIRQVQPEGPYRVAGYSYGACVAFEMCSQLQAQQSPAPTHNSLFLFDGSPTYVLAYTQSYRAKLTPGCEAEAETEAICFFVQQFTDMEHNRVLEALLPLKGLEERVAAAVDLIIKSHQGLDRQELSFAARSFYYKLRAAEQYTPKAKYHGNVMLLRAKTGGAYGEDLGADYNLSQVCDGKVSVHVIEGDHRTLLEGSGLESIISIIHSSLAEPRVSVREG
Chain of Sphingosine 1-phosphate receptor 2 (O95136 whole entry, the tested form may be a part): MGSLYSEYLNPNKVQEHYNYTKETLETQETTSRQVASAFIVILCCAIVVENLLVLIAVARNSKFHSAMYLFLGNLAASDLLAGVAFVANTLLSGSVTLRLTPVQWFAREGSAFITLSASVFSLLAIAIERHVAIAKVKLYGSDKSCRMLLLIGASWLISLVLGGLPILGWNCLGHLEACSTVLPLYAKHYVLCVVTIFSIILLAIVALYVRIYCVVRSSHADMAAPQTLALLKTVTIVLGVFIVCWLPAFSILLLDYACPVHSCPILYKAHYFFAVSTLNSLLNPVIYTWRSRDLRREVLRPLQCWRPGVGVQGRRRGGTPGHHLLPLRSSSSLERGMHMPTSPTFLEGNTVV
Chain of Lytic switch protein BZLF1 (P03206 whole entry): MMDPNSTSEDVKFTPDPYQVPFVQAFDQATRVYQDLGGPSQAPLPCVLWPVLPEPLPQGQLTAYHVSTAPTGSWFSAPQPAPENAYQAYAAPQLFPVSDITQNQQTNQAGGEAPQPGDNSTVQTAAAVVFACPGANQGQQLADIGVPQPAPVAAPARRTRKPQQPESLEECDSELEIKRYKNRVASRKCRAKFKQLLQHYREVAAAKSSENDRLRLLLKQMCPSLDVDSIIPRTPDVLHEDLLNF
Chain of Epstein-Barr nuclear antigen 1 (P03211 whole entry): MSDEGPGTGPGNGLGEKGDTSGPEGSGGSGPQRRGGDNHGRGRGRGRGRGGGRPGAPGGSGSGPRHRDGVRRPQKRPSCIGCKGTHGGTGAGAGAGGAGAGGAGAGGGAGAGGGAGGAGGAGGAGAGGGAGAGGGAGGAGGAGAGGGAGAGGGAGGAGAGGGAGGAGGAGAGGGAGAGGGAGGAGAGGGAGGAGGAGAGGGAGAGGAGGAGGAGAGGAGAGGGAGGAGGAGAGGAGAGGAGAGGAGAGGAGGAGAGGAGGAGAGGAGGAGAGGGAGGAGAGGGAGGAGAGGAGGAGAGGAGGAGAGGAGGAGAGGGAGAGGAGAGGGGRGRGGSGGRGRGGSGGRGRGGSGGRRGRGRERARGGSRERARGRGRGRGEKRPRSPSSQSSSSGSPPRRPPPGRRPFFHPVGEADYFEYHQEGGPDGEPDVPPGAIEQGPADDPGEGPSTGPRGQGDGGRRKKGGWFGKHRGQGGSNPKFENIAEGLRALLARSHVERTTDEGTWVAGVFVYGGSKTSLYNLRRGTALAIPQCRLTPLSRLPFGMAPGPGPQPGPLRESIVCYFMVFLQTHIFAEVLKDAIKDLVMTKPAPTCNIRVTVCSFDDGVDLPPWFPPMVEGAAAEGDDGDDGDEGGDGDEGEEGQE
Chain of Neuropeptide Y receptor type 1 (P25929 whole entry): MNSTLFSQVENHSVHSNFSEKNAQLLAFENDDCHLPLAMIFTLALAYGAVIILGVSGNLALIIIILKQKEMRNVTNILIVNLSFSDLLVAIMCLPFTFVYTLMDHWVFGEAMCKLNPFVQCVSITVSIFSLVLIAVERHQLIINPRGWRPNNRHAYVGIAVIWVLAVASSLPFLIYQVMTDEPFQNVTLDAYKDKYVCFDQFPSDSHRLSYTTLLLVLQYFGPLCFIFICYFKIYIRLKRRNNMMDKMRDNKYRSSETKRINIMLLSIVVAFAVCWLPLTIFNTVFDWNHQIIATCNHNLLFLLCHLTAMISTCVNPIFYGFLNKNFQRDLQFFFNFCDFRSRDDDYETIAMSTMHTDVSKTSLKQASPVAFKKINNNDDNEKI
Chain of 5-hydroxytryptamine receptor 1E (P28566 whole entry): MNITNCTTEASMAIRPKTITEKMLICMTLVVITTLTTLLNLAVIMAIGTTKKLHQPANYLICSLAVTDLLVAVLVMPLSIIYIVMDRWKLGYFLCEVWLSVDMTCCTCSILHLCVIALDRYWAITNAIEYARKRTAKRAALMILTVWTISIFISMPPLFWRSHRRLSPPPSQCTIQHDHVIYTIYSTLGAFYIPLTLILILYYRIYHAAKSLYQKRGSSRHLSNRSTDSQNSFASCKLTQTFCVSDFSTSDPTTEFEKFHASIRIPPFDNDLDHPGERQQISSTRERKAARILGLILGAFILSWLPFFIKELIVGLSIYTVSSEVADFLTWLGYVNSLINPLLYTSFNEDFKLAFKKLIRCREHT
Chain of Induced myeloid leukemia cell differentiation protein Mcl-1 (Q07820 whole entry): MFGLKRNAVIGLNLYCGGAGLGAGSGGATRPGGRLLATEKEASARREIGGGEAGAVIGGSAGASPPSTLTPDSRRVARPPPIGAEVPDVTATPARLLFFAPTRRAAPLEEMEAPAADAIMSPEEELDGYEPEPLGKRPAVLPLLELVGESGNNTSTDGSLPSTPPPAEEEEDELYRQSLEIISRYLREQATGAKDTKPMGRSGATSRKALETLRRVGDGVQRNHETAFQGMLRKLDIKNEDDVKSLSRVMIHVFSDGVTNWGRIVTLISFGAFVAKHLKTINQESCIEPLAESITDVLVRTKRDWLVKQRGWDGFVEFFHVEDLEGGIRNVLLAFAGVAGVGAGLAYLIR

N#Cc1nc(COc2ccc(Cl)cc2)oc1N1CCCCCC1
IC50 [1]: 6.66 µM (active)
IC50 [2]: 16.1 µM (not active)

CCN(CC)c1ccc(NC(=O)COc2ccc(N(C)S(=O)(=O)c3cccs3)cc2)cc1
EC50 [3]: > 30 µM (not active)
EC50 [4]: > 29.9 µM (not active)
EC50 [5]: > 29.9 µM (not active)
EC50 [6]: 2.28 µM (active)

COC(=O)c1cccc(S(=O)(=O)N2CCC(NC(=O)Nc3cccc(F)c3)CC2)c1
IC50 [7]: > 111 µM (not active)
IC50 [8]: 6.09 µM (active)

O=C1Cc2ccccc2C(=O)N1Cc1ccccc1
AC50 [9]: > 380 µM (inconclusive)
IC50 [10]: > 100 µM (inactive)
IC50 [11]: 1.06 µM (active)
EC50 [12]: 2.04 µM (active)
IC50 [13]: > 69.5 µM (not active)
IC50 [14]: 3.89 µM (active)

O=C(O)c1ccc2c(c1)C1C=CCC1C(c1cccc([N+](=O)[O-])c1)N2 (stereo unspecified)
EC50 [15]: 1.75 µM (active)

COc1ccc(/C=C/C(=O)Nc2cc(C(F)(F)F)ccc2Cl)cc1OC
IC50 [16]: 27.9 µM (active)

CC(C)(C)c1cc(-c2csc(Nc3ccccc3)[n+]2Cc2ccc(C(=O)O)cc2)cc(C(C)(C)C)c1O
EC50 [17]: 2.87 µM (active)
IC50 [18]: 20.7 µM (active)
EC50 [19]: > 150 µM (not active)
EC50 [20]: 1.64 µM (active)
IC50 [21]: 2.01 µM (active)

CNC(=O)c1ccc(CN(C)CC(=O)c2cc(C)n(Cc3ccccc3)c2C)cc1
EC50 [22]: > 30 µM (not active)

Cc1ccc(NC(=O)C2(c3ccc([N+](=O)[O-])cc3)CCCC2)cc1
IC50 [23]: 8.73 µM (active)
IC50 [24]: 14.6 µM (active)
IC50 [25]: 9.48 µM (active)
IC50 [26]: 6.92 µM (active)
